According to patent publication US20200237871A1, “METHODS FOR MITIGATING LIVER INJURY AND PROMOTING LIVER HYPERTROPHY, REGENERATION AND CELL ENGRAFTMENT IN CONJUNCTION WITH RADIATION AND/OR RADIOMIMETIC TREATMENTS” (Janssen Pharmaceutica NV, priority 2019, published 2020):
“Also recorded” adds a separate entry of the source.

How the values were obtained:
[1] = test system: mice with normal or cirrhotic (CCl4) livers; test: SPECT-CT residual perfusion defect volume after hepatic irradiation (Example 2); type: in vivo, mouse
Description: 8-12-week-old male and female Di-peptyl peptidase IV (DPPIV) −/− knockout mice and 8-12-week-old male and female C57Bl6 mice were used in this study. Animals were weighed in the beginning of the experiment and before tissue collection. All animals were housed in the Institute for Animal Studies at Albert Einstein College of medicine and fed regular rodent chow. All experiments were performed to according to protocols approved by Institutional Animal Care and Use Committee at Albert Einstein College of Medicine. Animals were made cirrhotic using CCl4 administration (intraperitoneal [IP] injections twice a week for at least 11 weeks).
Image-guided external beam irradiation was performed using a small animal radiation research platform (SARRP, Xstrahl Inc., Suwanee, Ga.). Mice were given gastrografin contrast through gavage to improve visualization of the gastrointestinal (GI) tract. After approximately 2 minutes, mice were positioned on a tubular couch and anesthetized with ˜2% Isofluorane (Isothesia, USP) in 2 L/min pure oxygen. A cone-beam computed tomography (CBCT) scan was acquired and a treatment plan irradiating the median lobe and right lobe was generated using the MuriPlan software. To minimize toxicity, in contrast to Example 1 where two parallel opposed fields were used, irradiation was performed using 2 arcs per liver target with equal dosing weights (likely resulting in more collateral lower dose radiation exposure compared to Example 1). Within the targeted lobes, the position of the isocenter was chosen to minimize irradiation of the GI tract, spine, and heart (the maximum dose to these organs was kept below 10 Gy). Targets were irradiated with 50 Gy X-rays at 220 kVp energy and 13 mA tube current (dose rate of 2.4-2.5 Gy/min) using a 1 mm copper filter for beam hardening. (Brodin et al., The Radiation Safety Journal, 2015, 109 Supp 3, S190).
TPOm was diluted in sterile PBS to a 10 mg/ml stock. The stock was stored at −20° C. and allowed to come to room temperature prior to administration. TPOm was administered as a single dose (300 μg/kg) via subcutaneous injection 10 minutes after the transplant procedure.
LSEC transplantation is a novel technique that requires a strong growth stimulus for effective liver repopulation (Guha et al., Hepatology, 2002, 36:354-62; Laconi et al., Am. J. Pathol., 1998, 153:319-29). Following isolation of LSECs, 500×10^5 LSECs are transplanted via intrasplenic injection into healthy adult mice anesthetized with Isoflurane (Isothesia, USP) 24 hrs post HIR. […]
SPECT with a radiotracer to assess the progression of RILD in-vivo has been developed and utilized in this work. […] The CT was set on medium resolution and was measured by a dosimeter and read by a third-party company, at an exposure of 5 mRem/hr for each CT scan/animal. […]

Hemophilia A mice = test: Drabkin's tail bleeding assay (Example 6); type: in vivo, mouse
From the text: 8-16-week-old male C57/BL6 mice, 8-16-week-old female and male B6129SF2/J mice (donor for isolating LSECs) and 8-16-week-old female and male Hemophilia mice (F^8tm1Kaz) mice were used in this study. Mice were housed in groups of up to 5 in micro-isolator cages on stainless steel racks (Allentown, Inc., Allentown, N.J.) with a total floor space of 500 cm^2. The cages utilized an external water bottle and a dual feeder rack (Fisher Scientific, Hampton, N.H.). These cages were stored in the storage rack which provided temperature, humidity, and ventilation control to each individual cage (Allentown, Inc.). Bed-o'Cobs ⅛″ (Fisher Scientific) were used as bedding material in each cage.
The methods were identical to Experiment 5 as described above; including the preparation of test articles (solutions of RWJ-800088 and AdHGF), isolation and transplant of LSECs, and Hepatic irradiation.
The livers of mice were irradiated at 50 Gy by using an X-ray irradiator (SARRP). At 24 hours post-irradiation, the LSECs (1×10^6 cells/mouse) were injected to the mouse through tail vein. […]
A tail bleeding test was performed in which the extent of bleeding and time to clotting over the course of 30 minutes was evaluated. FVIII protein levels were evaluated by Western blot and mRNA profiling in the blood and liver to evaluate the extent to which there was engraftment of functioning LSECs that produce FVIII. […]

methoxypolyethyleneglycol20000-propionyl-L-Isoleucyl-L-Glutamyl-Glycyl-L-Prolyl-L-Threonyl-L-Leucyl-L-Arginyl-L-Glutaminyl-L-2-Naphthylalanyl-L-Leucyl-L-Alanyl-L-Alanyl-L-Arginyl-Sarcosyl-Ne-(methoxypolyethyleneglycol20000-propionyl-L-Isoleucyl-L-Glutamyl-Glycyl-L-Prolyl-L-Threonyl-L-Leucyl-L-Arginyl-L-Glutaminyl-L-2-Naphthyl alanyl-L-Leucyl-L-Alanyl-L-Alanyl-L-Arginyl-Sarcosyl-)-Lysinamide [RWJ-800088]
perfusion defect of irradiated liver tissue (SPECT-CT), in words ([1]; LSEC transplant followed by TPOm injection post irradiation): perfusion recovery; also recorded: significant mitigation of defect formation
residual defect 2 months post radiation, cirrhotic liver ([1]; cirrhotic livers, RWJ-800088 and LSEC transplantation 24-hours post irradiation, listed as TPOm): significantly reduced
mean residual defect volume in the irradiated region ([1]; normal livers, RWJ-800088 2 or 24 hours prior to irradiation, without LSEC transplant, 2 months post HIR, listed as TPOm): significant reduction in defect volume
residual defect volume in the irradiated area ([1]; normal livers, RWJ-800088 and LSEC transplantation 24 hours after irradiation, 2 months post HIR, p=0.03, HIR only 71.4%): 18.2%
haemoglobin loss (haemoglobin concentration in the collection tube) compared to FVIII deficient model (Hemophilia A mice; HIR 50 Gy + LSECs + drug): significant decrease
bleeding and clotting time in functional bleeding assay (Hemophilia A mice; HIR + LSEC transplantation + RWJ-800088): reduced bleeding and clotting time similar to non-Hemophilia A controls
